The values below are quoted from earlier work in patent publication US10092545B2, “Nutritional supplements for improving female fertility” (Fairhaven Health, LLC, priority 2016, dated 2018).

The structures appear in SMILES notation.

Series [1] deals with oocyte-specific Pdss2-deficient animals. The note with it: maternal dietary administration.
For the next series, the system named is females. Conditions: females taking myo-inositol.
In a further series the test system is obese women with PCOS. Conditions: administering for as little as two months.

As for `COC1=C(OC)C(=O)C(C/C=C(\C)CC/C=C(\C)CC/C=C(\C)CC/C=C(\C)CC/C=C(\C)CC/C=C(\C)CC/C=C(\C)CC/C=C(\C)CC/C=C(\C)CCC=C(C)C)=C(C)C1=O` [CoQ10, Coenzyme Q10], in series [1], the premature ovarian failure entry is “could be prevented”.
Take `O[C@H]1[C@H](O)[C@@H](O)[C@H](O)[C@@H](O)[C@H]1O` [myo-inositol]: in the series with females, the insulin sensitivity result is recorded as “increased” and the serum testosterone level entry is recorded as “decreased”.
Consider `COc1ccc2[nH]cc(CCNC(C)=O)c2c1` [melatonin], for which, in the series with infertile women, the “fertilization and pregnancy rates” value is given as “elevates”; the intra-follicular melatonin concentrations entry was “increases”; the intra-follicular oxidative damage result is on record as “reduces”.
Turning to `[Cr]` [chromium], the “improvement of insulin sensitivity” value in the series with obese women with PCOS is recorded as “more than 30%”.
